Results reported in US20120252853A1, “Positive allosteric modulators of nicotinic acetylcholine receptor” (H. Lundbeck A/S, priority 2011, published 2012).

Molecular target: human α7 receptor (Homo sapiens, UniProt P36544)
Assay: α7 NNR flux assay (FDSS Ca assay)
Type: cell-based
Conditions: positive allosteric modulation; rat GH4C1 cell line stably expressing human α7; acetylcholine 20 μM; % modulation relative to PNU-120596 set to 100%
Method: In this version of the assay, the human α7 receptor is stably expressed in the rat GH4C1 cell line. The assay was used to identify positive allosteric modulators (PAMs) of the α7 receptor. Activation of the channel was measured by loading cells with the calcium-sensitive fluorescent dye Calcium-4 (Assay kit from Molecular Devices), and then measuring real-time changes in fluorescence upon treatment with test compounds.
The cell line ChanClone GH4C1-nAChRalpha7 from Genionics was seeded from frozen stock in 384-well plates in culture media 2-3 days before experiment to form an approximately 80% confluent layer on the day of experiment.
The cell culture were split into “22.5 cm×22.5 cm”-plates with approximately 100×10^3 cells/cm^2. After four days incubation in a humidified incubator at 37° C. and 5% CO2, it had grown to an 80-90% confluent layer, and the cells were harvested.
Two or three days before the experiment the cells were seeded in 384 well plates from Greiner bio-one (781946, CELLCOAT, Poly-D-Lysine, black, μClear).
The cells were seeded in 384 well plates with 30 μL/well (30000 cells/well) while stirring the cell suspension or otherwise preventing the cells from precipitating. The plates were incubated at room temperature for 30-45 minutes. The plates were placed in incubator for two days (37° C. and 5% CO2).
The loading buffer was 5% v/v Calcium-4 Kit and 2.5 mM Probenecid in assay buffer.
Culture media were removed from the cell plates and 20 μL loading buffer was added in each well. The cell plates were placed in trays and incubated 90 minutes in the incubator (37° C.). Thereafter the plates were incubated 30 minutes at room temperature, still protected from light. Now the cell plates were ready to run in the Functional Drug Screening System (FDSS) The assay buffer was HBSS with 20 mM HEPES, pH 7.4 and 3 mM CaCl2.
200 nL 10 mM compound solution in DMSO was diluted in 50 μL assay buffer. The final test concentrations in the cell plates were 20-10-5-2.5-1.25-0.625-0.312-0.156-0.078-0.039 μM. Assay buffer and 3 μM PNU-120596 were used for control:
The agonist acetylcholine was added to a final concentration of 20 μM (˜EC100). In the FDSS7000 the Ex480-Em540 was measured with 1 second intervals. The baseline was made of 5 frames before addition of test compounds, and 95 frames more were made before addition of acetylcholine. The measurement stopped 30 frames after the 2nd addition. Raw data for each well were collected as “the maximum fluorescence count” in the interval 100-131 seconds and as “the average fluorescence count” in the interval 96-100 seconds. The positive allosteric modulation in the 2nd addition was the enhancement of agonist response with test compound compared to agonist alone.
Results were calculated as % modulation of test compound compared to the reference PNU-120596 set to 100%.

Sequence of human α7 receptor (P36544 23-502): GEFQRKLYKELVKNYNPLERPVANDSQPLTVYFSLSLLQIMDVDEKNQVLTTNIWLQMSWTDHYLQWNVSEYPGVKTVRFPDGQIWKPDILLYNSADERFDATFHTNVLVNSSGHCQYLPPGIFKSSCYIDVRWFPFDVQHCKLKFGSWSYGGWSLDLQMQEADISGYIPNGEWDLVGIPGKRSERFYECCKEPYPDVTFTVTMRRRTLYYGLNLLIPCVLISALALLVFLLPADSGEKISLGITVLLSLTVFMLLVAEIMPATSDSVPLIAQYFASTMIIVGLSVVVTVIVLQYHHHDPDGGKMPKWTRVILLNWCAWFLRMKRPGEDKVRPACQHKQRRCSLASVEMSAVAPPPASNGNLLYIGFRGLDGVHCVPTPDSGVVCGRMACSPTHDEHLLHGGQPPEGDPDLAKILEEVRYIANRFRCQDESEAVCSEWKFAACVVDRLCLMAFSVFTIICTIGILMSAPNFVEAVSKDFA

| Compound | EC50 [µM] |
| --- | --- |
| Cc1cc2cc(C(C)NC(=O)c3oncc3C)ccc2[nH]1 (racemic) [Compound 16, 4-methyl-N-[1-(2-methyl-1H-indol-5-yl)ethyl]isoxazole-5-carboxamide] | 11 |
| COc1cc(C(=O)NC(C)c2ccc3[nH]c(C)cc3c2)on1 (racemic) [Compound 18, 3-methoxy-N-[1-(2-methyl-1H-indol-5-yl)ethyl]isoxazole-5-carboxamide] | 6.7 |
| Cc1cc(C(=O)NC(C)c2ccc3[nH]c(C)cc3c2)on1 (racemic) [Compound 33, 3-methyl-N-[1-(2-methyl-1H-indol-5-yl)ethyl]isoxazole-5-carboxamide] | 2.63 |
| Cc1cc(C(=O)NC(C)c2ccc3[nH]c(C(F)(F)F)cc3c2)on1 (single isomer, unassigned) [Compound 97, 3-methyl-N-[1-[2-(trifluoromethyl)-1H-indol-5-yl]ethyl]isoxazole-5-carboxamide] | 5.2 |
| Cc1cc2cc(CNC(=O)c3sc(C)nc3C)ccc2[nH]1 [Compound 2, 2,4-dimethyl-N-[(2-methyl-1H-indol-5-311)methyl]thiazole-5-carboxamide] | 9.8 |
| Cc1cc2cc(CNC(=O)c3ccc(Cl)s3)ccc2[nH]1 [Compound 3, 5-Chloro-thiophene-2-carboxylic acid (2-methyl-1H-indol-5-ylmethyl)-amide] | 0.13 |
| Cc1cc2cc(CNC(=O)c3sccc3Cl)ccc2[nH]1 [Compound 4, 3-chloro-N-[(2-methyl-1H-indol-5-yl)methyl]thiophene-2-carboxamide] | 2.9 |
| Cc1cc2cc(CNC(=O)c3cscn3)ccc2[nH]1 [Compound 5, N-[(2-methyl-1H-indol-5-yl)methyl]thiazole-4-carboxamide] | 4.4 |
| Cc1cc2cc(CNC(=O)c3ccsc3)ccc2[nH]1 [Compound 6, N-[(2-methyl-1H-indol-5-yl)methyl]thiophene-3-carboxamide] | 0.52 |
| Cc1cc2cc(CNC(=O)c3cc(C)oc3C)ccc2[nH]1 [Compound 7, 2,5-dimethyl-N-[(2-methyl-1H-indol-5-yl)methy]furan-3-carboxamide] | 1.4 |
| Cc1cc2cc(CNC(=O)c3cc(C)on3)ccc2[nH]1 [Compound 8, 5-methyl-N-[(2-methyl-1H-indol-5-yl)methyl]isoxazole-3-carboxamide] | 3.2 |
| Cc1cc2cc(CNC(=O)c3sccc3C)ccc2[nH]1 [Compound 9, 3-methyl-N-[(2-methyl-1H-indol-5-yl)methyl]thiophene-2-carboxamide] | 1.8 |
| Cc1cc2cc(CNC(=O)c3ccco3)ccc2[nH]1 [Compound 10, N-[(2-methyl-1H-indol-5-yl)methyl]furan-2-carboxamide] | 4 |
| Cc1cc2cc(CNC(=O)c3ccoc3)ccc2[nH]1 [Compound 11, N-[(2-methyl-1H-indol-5-yl)methyl]furan-3-carboxamide] | 2.4 |
| Cc1cc2cc(CNC(=O)c3cc(C)n(C)n3)ccc2[nH]1 [Compound 12, 1,5-dimethyl-N-[(2-methyl-1H-indol-5-yl)methyl]pyrazole-3-carboxamide] | 9.1 |
| Cc1cc2cc(CNC(=O)c3cccs3)ccc2[nH]1 [Compound 13, N-[(2-methyl-1H-indol-5-yl)methyl]thiophene-2-carboxamide] | 0.53 |
| Cc1cc2cc(CNC(=O)c3ccc[nH]3)ccc2[nH]1 [Compound 14, N-[(2-methyl-1H-indol-5-yl)methyl]-1H-pyrrole-2-carboxamide] | 7.4 |
| Cc1cc2cc(CNC(=O)c3oncc3C)ccc2[nH]1 [Compound 15, 4-methyl-N-[(2-methyl-1H-indol-5-yl)methyl]isoxazole-5-carboxamide] | 9.6 |
| Cc1cc(C(=O)NCc2ccc3[nH]cc(C)c3c2)on1 [Compound 17, 3-methyl-N-[(3-methyl-1H-indol-5-34)methyl]isoxazole-5-carboxamide] | 11 |
| COc1cc(C(=O)NCc2ccc3[nH]c(C)cc3c2)on1 [Compound 19, 3-methoxy-N-[(2-methyl-1H-indol-5-yl)methyl]isoxazole-5-carboxamide] | 4.6 |

| Compound | EC50 [µM] |
| --- | --- |
| Cc1cc2cc(CNC(=O)c3nccs3)ccc2[nH]1 [Compound 20, N-[(2-methyl-1H-indol-5-yl)methyl]thiazole-2-carboxamide] | 3.3 |
| Cc1cc2cc(CNC(=O)c3ocnc3C)ccc2[nH]1 [Compound 22, 4-methyl-N-[(2-methyl-1H-indol-5-yl)methyl]oxazole-5-carboxamide] | 7.2 |
| Cc1cc(C(=O)NCc2cc(C)c3[nH]ccc3c2)on1 [Compound 23, 3-methyl-N-[(7-methyl-1H-indol-5-yl)methyl]isoxazole-5-carboxamide] | 7.1 |
| Cc1cc2cc(CNC(=O)c3csc(C)n3)ccc2[nH]1 [Compound 25, 2-methyl-N-[(2-methyl-1H-indol-5-yl)methyl]thiazole-4-carboxamide] | 4.7 |
| Cc1cc2cc(CNC(=O)c3ccno3)ccc2[nH]1 [Compound 26, N-[(2-methyl-1H-indol-5-yl)methyl]isoxazole-5-carboxamide] | 7.37 |
| Cc1cc2cc(CNC(=O)c3c(C)noc3C)ccc2[nH]1 [Compound 27, 3,5-dimethyl-N-[(2-methyl-1H-indol-5-yl)methyl]isoxazole-4-carboxamide] | 0.44 |
| Cc1cc2cc(CNC(=O)c3cc(=O)n(C)[nH]3)ccc2[nH]1 [Compound 32, 2-methyl-N-[(2-methyl-1H-indol-5-yl)methyl]-3-oxo-1H-pyrazole-5-carboxamide] | 11 |
| Cc1cc2cc(CNC(=O)c3ccn(C)c3)ccc2[nH]1 [Compound 37, 1-methyl-N-[(2-methyl-1H-indol-5-yl)methyl]pyrrole-3-carboxamide] | 9.8 |
| Cc1cc(C(=O)NC(C)c2ccc3[nH]ccc3c2)on1 (stereo not shown) [Compound 38, N-[1-(1H-indol-5-yl)ethyl]-3-methyl-isoxazole-5-carboxamide] | 5.9 |
| Cc1cc(C(=O)NCc2cc3cc[nH]c3cc2C)on1 [Compound 39, 3-methyl-N-[(6-methyl-1H-indol-5-yl)methyl]isoxazole-5-carboxamide] | 9.1 |
| Cc1cc(C(=O)NCc2ccc3[nH]c(C)c(C)c3c2)on1 [Compound 41, N-[(2,3-dimethyl-1H-indol-5-yl)methyl]-3-methyl-isoxazole-5-carboxamide] | 7.7 |
| Cc1cc2cc([C@@H](C)NC(=O)c3cnc(C)s3)ccc2[nH]1 [Compound 42, 2-methyl-N-[(1R)-1-(2-methyl-1H-indol-5-yl)ethyl]thiazole-5-carboxamide] | 5.6 |
| CCn1cc(C(=O)N[C@H](C)c2ccc3[nH]c(C)cc3c2)cn1 [Compound 43, 1-ethyl-N-[(1R)-1-(2-methyl-1H-indol-5-yl)ethyl]pyrazole-4-carboxamide] | 2.2 |
| Cc1cc2cc([C@@H](C)NC(=O)c3cnn(C)c3)ccc2[nH]1 [Compound 44, 1-methyl-N-[(1R)-1-(2-methyl-1H-indol-5-yl)ethyl]pyrazole-4-carboxamide] | 6.1 |
| Cc1cc(C(=O)N[C@@H](c2ccc3[nH]c(C)cc3c2)C(F)(F)F)on1 [Compound 45, 3-methyl-N-[(1S)-2,2,2-trifluoro-1-(2-methyl-1H-indol-5-yl)ethyl]isoxazole-5-carboxamide] | 1.5 |
| COCCn1cc(C(=O)N[C@H](C)c2ccc3[nH]c(C)cc3c2)cn1 [Compound 46, 1(2-methoxyethyl)-N-[(1R)-1-(2-methyl-1H-indol-5-yl)ethyl]pyrazole-4-carboxamide] | 3.5 |
| Cc1cc2cc([C@@H](C)NC(=O)c3cnn(CCF)c3)ccc2[nH]1 [Compound 48, 1-(2-fluoroethyl)-N-[(1R)-1-(2-methyl-1H-indol-5-yl)ethyl]pyrazole-4-carboxamide] | 1.7 |
| Cc1cc2cc(CNC(=O)c3cnn(C4COC4)c3)ccc2[nH]1 [Compound 49, N-[(2-methyl-1H-indol-5-yl)methyl]-1-(oxetan-3-yl)pyrazole-4-carboxamide] | 6.5 |
| Cc1cc2cc(CNC(=O)c3cnc(C)o3)ccc2[nH]1 [Compound 50, 2-methyl-N-[(2-methyl-1H-indol-5-yl)methyl]oxazole-5-carboxamide] | 8.5 |
| Cc1cc2cc(CNC(=O)c3cnn(C4CCOC4)c3)ccc2[nH]1 (stereo not shown) [Compound 51, N-[(2-methyl-1H-indol-5-yl)methyl]-1-tetrahydrofuran-3-yl-pyrazole-4-carboxamide] | 6.1 |
